Experimental data taken from article PMC10714399, “Open Source Antibiotics: Simple Diarylimidazoles Are Potent against Methicillin-Resistant Staphylococcus aureus” (ACS Infectious Diseases, 2023).
≈ marks a conversion by molar mass, not a printed value. Where “and” joins values, the source holds several entries; their conditions need not be identical. Identical values can stand only once. Like-named read-outs stand apart in the source and are kept apart here.

Tests used:
[1] = In vitro metabolic stability, human liver microsomes (Monash); assay type: in vitro ADME
Description: (§1) The metabolic stability assay was performed by incubating each test compound with a suspension of liver microsomes (0.4 mg/mL protein, 1 μM substrate, 37 °C). Microsomes were purchased from XenoTech. The metabolic reaction was initiated by the addition of an NADPH-regenerating system and quenched at various time points over a 60 min incubation by the addition of acetonitrile containing metolazone as an internal standard. Control samples (containing no NADPH) were included (quenched at 2, 30, and 60 min) to monitor for potential degradation in the absence of cofactor. […]
(§2) d) In Vitro Metabolic Stability
(§3) The metabolic stability assay was performed by incubating each test compound with a suspension of liver
(§4) microsomes (0.4 mg/mL, 37°C). The metabolic reaction was initiated by the addition of an NADPH-regenerating
(§5) system and quenched at various time points over a 60 minute incubation by the addition of acetonitrile containing
(§6) metolazone as internal standard. Control samples (containing no NADPH) were included (quenched at 2, 30 and 60
(§7) minutes) to monitor for potential degradation in the absence of cofactor.
(§8) The human liver microsomes used in this experiment were supplied by XenoTech, lot # 1710084.The rat liver
(§9) microsomes used in this experiment were supplied by XenoTech, lot # 1610290. Microsomal incubations were
(§10) performed at a substrate concentration of 1 µM.
(§11) Data analysis and interpretation:
(§12) Substrate depletion as a function of time was analysed as described by Obach (1999) Drug Metab. Dispos., 27:1350-
(§13) 1359. Intrinsic clearance (CLint) values were classified at the limits of low and high clearance bands based on a
(§14) rearrangement of the well stirred model of hepatic elimination. It should be noted that the potential impact of
(§15) compound binding (either in microsomes or in blood) on the relationship between in vitro intrinsic clearance and
(§16) hepatic clearance in vivo has not been accounted for in these studies.
(§17) In Vitro Intrinsic Clearance
(§18) Species (µL/min/mg protein)
(§19) Low Clearance High Clearance
(§20) Experimental results are tabulated on the following page(s).
(§21) (1 picture or pasted object on this page, not shown here)

[2] = Rat liver microsome (RLM) metabolic stability (UNC); assay type: in vitro ADME; conditions: rat liver microsomes
Excerpt: Supplement id3c00286_si_002.xlsx, sheet "Series 2 Data" | column: RLM Clint (mL/min/kg) (UNC); RLM t1/2 (min) (UNC); RLM E (UNC)

[3] = In vitro metabolic stability, rat liver microsomes (Monash); assay type: in vitro ADME
Description: as §1, §2, §3, §4, §5, §6, §7, §8, §9, §10, §11, §12, §13, §14, §15, §16, §17, §18, §19, §20, §21

[4] = Mouse liver microsome (MLM) metabolic stability (UNC); assay type: in vitro ADME
Excerpt: Supplement id3c00286_si_002.xlsx, sheet "Series 2 Data" | column: MLM Clint (mL/min/kg) (UNC); MLM t1/2 (min) (UNC); MLM E (UNC)

[5] = tested on: Staphylococcus aureus NCTC 13373 (mecA-positive; methicillin-resistant); experiment: In vitro antibacterial activity, MIC (UCL School of Pharmacy assay), MRSA; assay type: cell-based; conditions: for MIC: Staphylococcus aureus
How it was run: (§22)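 Strains: MRSA NCTC 13373, MSSA ATCC 25923, vanA E. faecalis ATCC 51299. Overnight agar growth suspended in PBS, A600 0.1, diluted 1:100 into isosensitest broth; 2-fold compound dilutions 32–0.03 μg/mL, ≤2% DMSO. Vancomycin QC.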

[6] = Kinetic solubility estimation using nephelometry (Monash); assay type: physicochemical; conditions: for solubility kinetic at 30 min: kinetic from dmso stock
Description: Compound in DMSO was spiked into either pH 6.5 phosphate buffer or 0.01 M HCl (approximately pH 2.0) with the final DMSO concentration being 1%. […]
b) Kinetic Solubility Estimation using Nephelometry (SolpH)
Compound in DMSO was spiked into either pH 6.5 phosphate buffer or 0.01 M HCl (approx pH 2.0) with the final
DMSO concentration being 1%. After 30 minutes had elapsed, samples were then analysed via Nephelometry to
determine a solubility range. See Bevan and Lloyd (2000) Anal Chem, 72:1781-1787. […]
(§23) In Vitro Intrinsic Clearance […]
as §20, §21

[7] = Distribution coefficient estimation using chromatography, gLogD (Monash); assay type: physicochemical
Excerpt: Partition coefficient values (LogD) of the test compounds were estimated at pH 7.4 by the correlation of their chromatographic retention properties against the characteristics of a series of standard compounds with known partition coefficient values. The method employed is a gradient HPLC-based derivation of the method developed by Lombardo.[42] […]
c) Distribution Coefficient Estimation using Chromatography (gLogDpH)
Partition coefficient values (LogD) of the test compounds were estimated at pH 7.4 by correlation of their
chromatographic retention properties against the characteristics of a series of standard compounds with known
partition coefficient values. […]
as §23, §20, §21

[8] = tested on: Acinetobacter baumannii ATCC 19606; experiment: CO-ADD antibacterial assay, A. baumannii; assay type: cell-based
Description: (§24) Hit Confirmation of active compounds by whole cell growth inhibition assays was conducted as an 8-point dose response to determine the Minimum Inhibitory Concentration (MIC), in duplicate (n=2). The inhibition of growth is measured against those microorganisms that […]
(§25) Included in the Hit Confirmation were 5 bacteria: Escherichia coli, Klebsiella pneumoniae, Acinetobacter baumannii, Pseudomonas aeruginosa and Staphylococcus aureus, and 2 fungi Candida albicans and Cryptococcus neoformans. […]
(§26) Assay Parameters Bacteria Fungi HEK293 Haemolysis […]
(§27) Duplicate (n=2) Duplicate (n=2) Duplicate (n=2) Duplicate (n=2)
(§28) QC Control MIC: Control MIC: Control CC50: Control HC10:
(§29) Non-Binding Non-Binding TC, 384-well Polypropylene […]
(§30) All bacteria were cultured in Cation-adjusted Mueller Hinton broth (CAMHB) at 37 °C overnight. […] The resultant mid-log phase cultures were diluted (CFU/mL measured by OD600), then added to each well of the compound containing plates, giving a cell density of 5×10^5 CFU/mL and a total volume of 50 µL. […]
(§31) Inhibition of bacterial growth was determined measuring absorbance at 600 nm (OD600), using a Tecan M1000 Pro monochromator plate reader. The percentage of growth inhibition was calculated for each well, using the negative control (media only) and positive control (bacteria without inhibitors) on the same plate as references. […]

[9] = tested on: Klebsiella pneumoniae ATCC 700603; experiment: CO-ADD antibacterial assay, K. pneumoniae; assay type: cell-based
Description: as §24, §25, §26, §27, §28, §29, §30, §31

[10] = tested on: Escherichia coli ATCC 25922; experiment: CO-ADD antibacterial assay, E. coli; assay type: cell-based
Description: as §24, §25, §26, §27, §28, §29, §30, §31

[11] = tested on: Pseudomonas aeruginosa ATCC 27853; experiment: CO-ADD antibacterial assay, P. aeruginosa; assay type: cell-based
Description: as §24, §25, §26, §27, §28, §29, §30, §31

[12] = tested on: p38 kinase; design: method as in earlier work; conditions: cited from earlier work
[13] = LogD7.4 (Chrom Log D); assay type: physicochemical; conditions: chromatographic system (Chrom Log D); pH 7.4, NEU; read-out: LogD 7.4 (NEU)
[14] = tested on: THP1; experiment: Toxicity against THP1; assay type: cell-based; conditions: THP1 cells
Excerpt: Supplement id3c00286_si_002.xlsx, sheet "Series 2 Data" | column: THP1 TC50 (uM)

[15] = Human plasma protein binding (PPB); assay type: in vitro ADME; conditions: human, plasma, human plasma, NEU; read-out: Human PPB (NEU) (converted)
[16] = tested on: MRC-5SV2 (human lung fibroblast cell line); experiment: Toxicity against MRC-5SV2; assay type: cell-based; conditions: MRC5 cells
Description: (§32) ADME and toxicity for compounds were measured according to procedures outlined in the manuscript submitted in parallel to this one;2 other procedures were used for those compounds analysed by Monash University (in vitro ADME) or UCL (toxicity), both described in the main

[17] = Aqueous solubility; assay type: physicochemical; conditions: thermodynamic from solid; NEU; read-out: Aqueous Solubility (NEU)
[18] = Human liver microsome intrinsic clearance; assay type: in vitro ADME; conditions: human liver microsomes, NEU; read-out: HLM CLint (NEU)
[19] = tested on: PMM (primary mouse macrophages); experiment: Toxicity against PMM; assay type: cell-based; conditions: PMM
Description: as §32

[20] = tested on: Enterococcus faecalis ATCC 51299 (vanA-positive; vancomycin-resistant); experiment: In vitro antibacterial activity, MIC (UCL), VRE; assay type: cell-based; conditions: read-out: VRE MIC (UCL)
How it was run: as §22

[21] = tested on: U2OS; experiment: Toxicity against U2OS; assay type: cell-based; conditions: U2OS cells
Excerpt: Supplement id3c00286_si_002.xlsx, sheet "Series 2 Data" | column: U2OS TC50 (uM)

[22] = Rat hepatocyte intrinsic clearance; assay type: in vitro ADME; conditions: rat hepatocytes, NEU; read-out: Rat Hep CLint (NEU)
[23] = NADPH, read-out: CLint, in vitro

c1ccc(-c2nc3n(c2-c2ccc4c(c2)OCO4)CCC3)nc1 [OSA_000812]
HLM Clint (Monash) ([1]; Monash): 28 µL/min/mg | HLM t1/2 (Monash) ([1]; Monash): 62 min | CLint scaled [2]: 142 mL/min/kg | RLM E (UNC) [2]: 0.669 | half-life ([2]; read-out: RLM t1/2 (UNC)): 17.7 min | RLM Clint (Monash) ([3]; Monash): 59 µL/min/mg | RLM t1/2 (Monash) ([3]; Monash): 29 min | MLM Clint (UNC) ([4]; mouse liver microsomes): 677 mL/min/kg | MLM E (UNC) ([4]; mouse liver microsomes): 0.864 and 0.883 | MLM t1/2 (UNC) ([4]; mouse liver microsomes): 8.3 min | CLint scaled ([4]; mouse, liver microsomes): 569 mL/min/kg | half-life ([4]; mouse, liver microsomes, read-out: MLM t1/2 (UNC)): 9.87 min | MIC ([5]; UCL, read-out: MRSA MIC (UCL)): 32 µg/mL (≈ 105 µM) | solubility kinetic at 30 min ([6]; 0.01 M HCl, simulated gastric fluid, pH 2.0, read-out: Sol (pH 2.0) (Monash)): > 100 µg/mL | solubility kinetic at 30 min ([6]; pH 6.5 phosphate buffer, pH 6.5, aqueous buffer, read-out: Sol (pH 6.5) (Monash)): 50 to 100 µg/mL (≈ 164 to 328 µM) | chromatographic logD ([7]; gradient HPLC retention against standard compounds, pH 7.4): 1.5

Colistin - Sulfate
MIC Acinetobacter baumannii [8]: 0.25 µg/mL | MIC Klebsiella [9]: 0.25 µg/mL | MIC Escherichia coli [10]: 0.125 µg/mL | MIC Pseudomonas aeruginosa [11]: 0.25 µg/mL

c1ccc(-c2nc3n(c2-c2ccc4c(c2)OCO4)CCC3)nc1 [compound 812]
microsomal CLint at 1 µM [1, 23]: 28 µL/min/mg | half-life at 1 µM ([1]; NADPH, read-out: T1/2): 62 min | microsomal CLint at 1 µM [3, 23]: 59 µL/min/mg | half-life at 1 µM ([3]; NADPH, read-out: T1/2): 29 min | inhibition of p38 kinase [12]: no inhibition | activity against MRSA, in words [5]: MRSA-inactive | MIC ([5]; 16 h, read-out: MRSA MIC): > 32 µg/mL | MIC ([5]; read-out: MRSA MIC): 32 µg/mL (≈ 105 µM) | Sol 6.5 ([6]; pH 6.5 phosphate buffer): 50 to 100 µg/mL | gLogD at pH 7.4 [7]: 1.5

COc1ccn2c(-c3ccc(F)cc3)c(-c3ccccn3)nc2c1 [OSA_000858]
chromatographic logD [13]: 2.9 | THP1 TC50 [14]: 7.63 µM | fraction unbound [15]: 0.054 | MRC5 TC50 [16]: 3.62 µM | solubility [17]: 85 µM (≈ 27.1 µg/mL) | microsomal CLint [18]: > 300 µL/min/mg | MIC ([5]; UCL, read-out: MRSA MIC (UCL)): 16 µg/mL (≈ 50.1 µM) | PMM TC50 [19]: 8 µM | MIC [20]: > 32 µg/mL | U2OS TC50 [21]: 1.28 µM | hepatocyte CLint [22]: 25.1 µL/min/1e6 cells
